Data set [1] has as its target LRRK2 WT (Homo sapiens, UniProt Q5S007). As to the kind of experiment: In vitro kinase assay: LRRK2 autophosphorylation. It counts as biochemical. To be noted: for effect on WT LRRK2 autophosphorylation: dose-response; for IC50: Table 2, mean of three experiments; for LRRK2 autophosphorylation Average ± SEM: compound 16 μM, phosphorylation normalized to absence of compound, mean ± S.E.M. of three experiments; for effect on LRRK2 autophosphorylation: screen at 16 μM.

Data set [2] concerns the target LRRK1 WT (Homo sapiens, UniProt Q38SD2). As to the kind of experiment: In vitro kinase assay: LRRK1 autophosphorylation. It counts as biochemical. To be noted: for IC50: Table 3, mean of three experiments.
In data set [3] the target is G2019S LRRK2 (Homo sapiens, UniProt Q5S007, G2019S). As to the kind of experiment: In vitro kinase assay: LRRK2-mediated phosphorylation of 4E-BP1. It counts as biochemical. On the procedure:
The GST-4E-BP1 expressing vector was generated using the Invitrogen Gateway LR Clonase System. Briefly, an entry clone containing the 4E-BP1 sequence was reacted with the destination vector, pDEST-15 in the presence of the LR clonase mixture. After the clonase reaction, the mixture was transformed into One Shot BL21 chemically competent E. coli. The transformed cells were grown on ampicillin containing LB agar plate for one day at 37° C. Colonies containing GST-4E-BP1 were isolated. For protein induction, 100 μM IPTG was added to 100 mL culture and incubated for 3 h at 30° C. After IPTG incubation, cells were collected by centrifugation at 3,000×g for 15 min. The pellet was lysed with sonication in the presence of lysis butter containing 0.5% TX-100, 50 mM Tris-HCl (pH 8.0), 100 mM NaCl, 0.5 mM EGTA, 5 mM MgCl2, 2 mM DTT, and complete protease inhibitors. The lysate was centrifugated at 15,000×g for 15 min and the supernatant was incubated with GSH-sepharose beads for 2 h at 4° C. After incubation, the beads were washed with PBS containing an additional 150 mM NaCl and 0.1% TX-100 three times. The protein was eluted with elution buffer containing Hepes (pH 8.0), 150 mM NaCl, 30% glycerol, and 30 mM glutathione. The eluted proteins were stored at −80° C.
The in vitro kinase assay was performed as previously described. West, A. B. et al. Parkinson's disease-associated mutations in leucine-rich repeat kinase 2 augment kinase activity. Proc Natl Acad Sci USA 102, 16842-16847 (2005). Recombinant LRRK2 and MBP or CST-4E-BP1 were combined before the kinase reaction. LRRK2 autophosphorylation is LRRK2 itself phosphorylation and MBP or GST-4E-BP1 phosphorylation is induced by LRRK2. After the kinase reaction, combined LRRK2 and MBP or GST-4E-BP1 were loaded on SDSPAGE and phosphorylated LRRK2 and MBP or GST-4E-BP1 could be detected separately an a single gel. Recombinant proteins and inhibitors were incubated at 30° C. in kinase assay buffer containing 20 mM Hepes (pH 7.4), 5 mM EGTA, and 20 mM β-glycerol phosphate. 0.5 μg MBP (Upstate) or 0.5 μg GST-4B-BP1, 50 μM ATP (Sigma), 20 mM MgCl2, and 1 μCi [γ-32P] ATP (PerkinElmer) was added after 5 min. The reaction was performed at 30° C. to reduce non-specific 32P incorporation for 15 min and terminated by the addition of 5×Laemmili sample buffer. The reactions were then heated at 70° C. for 10 min and resolved by 12% SDS-PAGE. Gels were stained by coomassie brilliant blue after fixation with 10% acetic acid and 40% methanol and then exposed to a Phosphoimager. Data were analyzed by ImageQuant 6.0 software.

For data set [4], the system named is C. elegans expressing LRRK2 G2019S in DA neurons. The data set can be described thus: Transgenic nematode model of LRRK2 G2019S-induced DA neurodegeneration. It counts as in vivo, Caenorhabditis elegans. Conditions: for rescue of DA neurodegeneration: 7 day-old worms; for worms with wild-type DA neurons (4 CEP and 2 ADE): 7-day-old worms, n=90, 48% with 1% DMSO. Here is the method:
Nematodes were maintained following the standard procedures. Brenner, S., 771 GENETICS 71-94 (1974). Isogenic worm strains expressing LRRK2, G2019S, UAXX [baInlX; Pdat-1::LRRK2 G2019S, Pdat-1::gfp] were generated via microinjection, integrated into the genome and out-crossed three times. Age-synchronized worms were obtained by treating gravid adults with 2% sodium hypochlorite and 0.5M NaOH to isolate embryos. Lewis, J. A., 48 METHODS CELL BIOL. 3-29 (1995). These embryos were treated with indicated concentrations of LRRK2 kinase inhibitors, which were dissolved in 1% DSMO, for 24 h. at 20° C. with gentle shaking. The worms were then washed and transferred into NGM plates seeded with OP50 bacteria, and incubated as 20° C. The six anterior DA neurons (4 CEP and 2 ADE neurons) of 30 animals/trial were examined for neurodegeneration when the animals were 7 days old. A total of 90 animals for each treatment were analyzed (3 trials of 30 animals/trial). […] See Hamamichi et al., 105(2) PROC. NATL. ACAD. SCI. USA 728-33 (2008); and Cao et al, 25 J. NEUROSCI. 3801-12 (2005). For each trial, 30 worms were transferred into a 2% agarose pad, immobilized with 2 mM levamisole, and analyzed using Nikon Eclipse E800 epifluorescence microscope equipped with Endow GFP HYQ filter cube (Chrom Technology, Rockingham, Vt.). Images were captured with a Cool Snap CCD camera (Photometrics, Tucson, Ariz.) driven by MetaMorph software (Universal Imaging, West Chester, Pa.).
To determine whether the LRRK2 kinase inhibitors protect against LRRK2-induced neurodegeneration in vivo, the LRRK2 kinase inhibitors were tested in the C. elegans model of LRRK2 G2019S-induced neurodegeneration described above. The DA transporter (dat-1) was used to direct expression of LRRK2 G2019S in DA neurons.

Data set [5] deals with HSV-G2019S LRRK2 dopaminergic neurotoxicity. As to the kind of experiment: HSV amplicon-based mouse model of LRRK2 dopaminergic neurotoxicity. Type of data set: in vivo. To be noted: for loss of tyrosine hydroxylase-positive neurons induced by HSV-G2019S LRRK2: 2.5 mg per kg i.p. twice daily, 3 weeks, versus DMSO- and indirubin-injected controls.
For data set [6] the following is noted: from literature; cited from earlier work.

By IC50 is commonly meant the point on the concentration scale where inhibition reaches its midpoint.

G2019S LRRK2, sequence (Q5S007 whole entry G2019S): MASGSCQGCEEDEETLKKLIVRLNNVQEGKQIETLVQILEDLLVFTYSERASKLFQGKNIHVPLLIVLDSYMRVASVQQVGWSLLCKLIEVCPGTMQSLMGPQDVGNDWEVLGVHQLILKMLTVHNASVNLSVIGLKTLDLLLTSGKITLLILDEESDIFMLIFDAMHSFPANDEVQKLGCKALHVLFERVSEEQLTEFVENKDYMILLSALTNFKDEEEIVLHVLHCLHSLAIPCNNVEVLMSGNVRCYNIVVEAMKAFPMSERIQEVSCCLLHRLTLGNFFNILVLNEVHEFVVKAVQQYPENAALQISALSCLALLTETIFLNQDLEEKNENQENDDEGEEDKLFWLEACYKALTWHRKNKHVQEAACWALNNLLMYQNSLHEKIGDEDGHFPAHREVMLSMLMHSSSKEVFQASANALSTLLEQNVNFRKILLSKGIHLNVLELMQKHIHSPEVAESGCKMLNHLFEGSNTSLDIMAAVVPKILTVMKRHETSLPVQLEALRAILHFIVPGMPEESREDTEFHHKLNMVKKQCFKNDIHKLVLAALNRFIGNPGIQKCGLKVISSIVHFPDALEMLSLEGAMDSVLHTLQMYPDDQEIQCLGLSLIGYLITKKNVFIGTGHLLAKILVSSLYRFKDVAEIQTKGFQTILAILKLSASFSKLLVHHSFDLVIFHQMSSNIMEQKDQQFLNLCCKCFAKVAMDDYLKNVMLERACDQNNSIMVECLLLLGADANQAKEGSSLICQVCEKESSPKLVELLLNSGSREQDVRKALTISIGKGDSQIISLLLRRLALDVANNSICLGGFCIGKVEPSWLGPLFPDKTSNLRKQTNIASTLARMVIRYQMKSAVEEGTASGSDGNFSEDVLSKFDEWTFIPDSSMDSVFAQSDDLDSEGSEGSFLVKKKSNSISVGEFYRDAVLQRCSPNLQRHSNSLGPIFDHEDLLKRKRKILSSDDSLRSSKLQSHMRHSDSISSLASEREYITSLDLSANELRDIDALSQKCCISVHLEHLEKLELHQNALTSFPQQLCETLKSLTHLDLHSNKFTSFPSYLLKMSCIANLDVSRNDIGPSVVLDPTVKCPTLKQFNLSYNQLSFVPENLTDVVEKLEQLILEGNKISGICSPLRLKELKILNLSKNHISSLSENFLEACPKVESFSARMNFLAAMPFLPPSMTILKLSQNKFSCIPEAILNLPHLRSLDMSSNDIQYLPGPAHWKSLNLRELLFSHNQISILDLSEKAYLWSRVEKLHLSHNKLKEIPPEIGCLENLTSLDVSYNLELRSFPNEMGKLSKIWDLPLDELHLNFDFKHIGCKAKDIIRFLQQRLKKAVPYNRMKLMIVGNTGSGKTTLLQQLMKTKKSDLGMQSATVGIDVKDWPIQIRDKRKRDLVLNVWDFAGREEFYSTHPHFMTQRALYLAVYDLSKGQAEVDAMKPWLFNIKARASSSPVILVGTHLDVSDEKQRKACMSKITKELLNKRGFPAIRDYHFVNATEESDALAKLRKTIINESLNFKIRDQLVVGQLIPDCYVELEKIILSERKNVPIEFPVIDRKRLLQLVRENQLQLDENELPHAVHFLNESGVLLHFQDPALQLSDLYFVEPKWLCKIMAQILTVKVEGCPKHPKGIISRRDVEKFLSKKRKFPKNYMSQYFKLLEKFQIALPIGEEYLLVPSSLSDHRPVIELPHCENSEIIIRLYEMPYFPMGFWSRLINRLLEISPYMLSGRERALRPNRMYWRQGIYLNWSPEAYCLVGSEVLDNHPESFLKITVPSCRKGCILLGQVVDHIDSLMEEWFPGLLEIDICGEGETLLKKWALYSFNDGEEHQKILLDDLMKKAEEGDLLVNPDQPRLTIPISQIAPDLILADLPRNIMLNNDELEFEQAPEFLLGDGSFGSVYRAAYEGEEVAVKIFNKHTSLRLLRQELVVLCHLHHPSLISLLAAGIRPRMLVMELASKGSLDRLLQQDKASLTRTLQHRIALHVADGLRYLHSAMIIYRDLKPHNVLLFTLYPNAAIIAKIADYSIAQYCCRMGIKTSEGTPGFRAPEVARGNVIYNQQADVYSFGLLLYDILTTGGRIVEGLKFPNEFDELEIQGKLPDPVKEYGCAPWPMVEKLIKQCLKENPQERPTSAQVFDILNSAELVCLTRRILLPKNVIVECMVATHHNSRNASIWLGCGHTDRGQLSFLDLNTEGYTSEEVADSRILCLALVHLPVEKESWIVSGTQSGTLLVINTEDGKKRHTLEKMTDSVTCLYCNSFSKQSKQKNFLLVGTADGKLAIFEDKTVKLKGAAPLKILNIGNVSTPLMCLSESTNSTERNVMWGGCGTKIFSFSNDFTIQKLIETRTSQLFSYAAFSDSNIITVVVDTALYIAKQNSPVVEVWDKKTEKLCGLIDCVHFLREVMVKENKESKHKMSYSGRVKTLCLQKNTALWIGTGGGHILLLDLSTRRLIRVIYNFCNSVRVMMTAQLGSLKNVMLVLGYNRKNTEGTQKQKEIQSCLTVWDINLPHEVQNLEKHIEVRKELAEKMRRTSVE
LRRK2 WT, sequence (Q5S007 whole entry): as the sequence (Q5S007 whole entry G2019S) above, with S2019G counted along it
LRRK1 WT, sequence (Q38SD2 whole entry): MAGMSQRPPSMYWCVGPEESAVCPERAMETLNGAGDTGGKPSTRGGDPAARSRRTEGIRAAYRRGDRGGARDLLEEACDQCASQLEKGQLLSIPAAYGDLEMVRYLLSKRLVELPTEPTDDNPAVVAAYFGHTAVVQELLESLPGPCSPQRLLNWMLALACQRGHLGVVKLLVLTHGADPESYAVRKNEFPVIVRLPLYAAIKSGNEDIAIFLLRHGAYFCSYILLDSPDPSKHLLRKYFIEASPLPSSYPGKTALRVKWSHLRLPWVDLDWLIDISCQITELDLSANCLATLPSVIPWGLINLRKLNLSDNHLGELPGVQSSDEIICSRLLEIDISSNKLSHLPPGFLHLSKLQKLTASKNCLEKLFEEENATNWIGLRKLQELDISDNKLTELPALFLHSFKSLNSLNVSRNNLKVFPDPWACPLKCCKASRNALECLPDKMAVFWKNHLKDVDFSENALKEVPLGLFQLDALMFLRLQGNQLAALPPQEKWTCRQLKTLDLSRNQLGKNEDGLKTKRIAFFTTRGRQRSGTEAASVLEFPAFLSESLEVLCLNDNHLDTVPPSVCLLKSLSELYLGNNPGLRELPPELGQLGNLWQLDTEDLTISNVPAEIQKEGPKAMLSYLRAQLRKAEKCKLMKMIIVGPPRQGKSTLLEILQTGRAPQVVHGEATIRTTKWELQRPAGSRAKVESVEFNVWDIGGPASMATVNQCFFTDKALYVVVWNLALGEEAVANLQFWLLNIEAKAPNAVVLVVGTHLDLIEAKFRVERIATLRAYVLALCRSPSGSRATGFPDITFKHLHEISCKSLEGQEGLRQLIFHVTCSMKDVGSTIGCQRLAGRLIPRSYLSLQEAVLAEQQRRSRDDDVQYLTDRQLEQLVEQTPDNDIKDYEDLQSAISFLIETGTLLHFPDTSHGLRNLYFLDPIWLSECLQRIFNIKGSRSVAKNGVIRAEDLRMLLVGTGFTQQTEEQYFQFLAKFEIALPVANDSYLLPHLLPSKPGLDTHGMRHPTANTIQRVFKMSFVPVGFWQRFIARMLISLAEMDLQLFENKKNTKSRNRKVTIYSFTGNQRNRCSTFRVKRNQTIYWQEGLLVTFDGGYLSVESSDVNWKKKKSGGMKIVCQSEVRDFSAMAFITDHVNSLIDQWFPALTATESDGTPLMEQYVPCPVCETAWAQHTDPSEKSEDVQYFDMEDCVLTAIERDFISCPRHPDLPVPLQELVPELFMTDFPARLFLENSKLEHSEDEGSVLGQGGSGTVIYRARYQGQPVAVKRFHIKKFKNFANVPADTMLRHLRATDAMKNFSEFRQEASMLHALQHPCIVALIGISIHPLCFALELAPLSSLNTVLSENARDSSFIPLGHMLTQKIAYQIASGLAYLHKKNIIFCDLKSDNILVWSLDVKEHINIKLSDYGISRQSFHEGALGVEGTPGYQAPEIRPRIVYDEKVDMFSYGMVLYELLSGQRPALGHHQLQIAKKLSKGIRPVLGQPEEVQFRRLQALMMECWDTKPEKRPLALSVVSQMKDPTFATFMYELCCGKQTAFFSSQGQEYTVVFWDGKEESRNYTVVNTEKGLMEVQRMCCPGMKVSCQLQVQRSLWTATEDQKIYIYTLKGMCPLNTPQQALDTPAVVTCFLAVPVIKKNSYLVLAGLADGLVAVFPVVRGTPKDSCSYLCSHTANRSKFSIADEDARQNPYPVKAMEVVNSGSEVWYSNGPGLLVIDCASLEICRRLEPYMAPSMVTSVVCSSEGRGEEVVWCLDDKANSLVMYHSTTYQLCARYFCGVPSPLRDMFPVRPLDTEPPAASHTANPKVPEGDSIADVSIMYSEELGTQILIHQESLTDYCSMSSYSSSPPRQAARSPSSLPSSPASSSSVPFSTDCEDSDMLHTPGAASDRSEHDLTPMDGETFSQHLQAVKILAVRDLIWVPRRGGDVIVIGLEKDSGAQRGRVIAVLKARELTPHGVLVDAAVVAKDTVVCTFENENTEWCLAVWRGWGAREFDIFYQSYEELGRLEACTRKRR

For the compound `Cc1ccc(NC(=O)c2cccc(N(C)C)c2)cc1NC(=O)c1ccc(O)cc1` [Inhibitor 53, ZM336372], the “effect on WT LRRK2 autophosphorylation” value in data set [1] is “no effect”. Further, the “effect on LRRK1 autophosphorylation” value in data set [2] is “minimal to no effect”. In addition, the “LRRK2-mediated phosphorylation of 4E-BP1” value in data set [3] is given as “did not inhibit”. For the same compound, in data set [4], the “rescue of DA neurodegeneration” value is listed as “failed to rescue”.
On to `O=C1Nc2ccc(I)cc2/C1=C/c1cc(Br)c(O)c(Br)c1` [Inhibitor 56, GW5074], for which, in data set [1], the IC50 came to 880 nM, the “LRRK2 autophosphorylation Average ± SEM” value was 4.6 ± 2.9 % of control and the “effect on LRRK2 autophosphorylation” value is reported as “substantially inhibited”. In data set [2], this compound had an IC50 of 730 nM. For the same compound, in data set [3], the “LRRK2-mediated phosphorylation of 4E-BP1” value is on record as “inhibited”. Further, the “worms with wild-type DA neurons (4 CEP and 2 ADE)” value in data set [4] (10 μM) was found to be 66%. Moreover, in data set [4] (25 μM), the “worms with wild-type DA neurons (4 CEP and 2 ADE)” value is 67%. Besides, in data set [4], the “rescue of DA neurodegeneration” value was “protect worms from neurodegeneration”. Further, the “loss of tyrosine hydroxylase-positive neurons induced by HSV-G2019S LRRK2” value in data set [5] is reported as “attenuated”. Besides, in data set [5] (G2019S LRRK2 mice, 2.5 mg/kg i.p. twice daily), the “increase in ILB4-positive cells in striatum and substantia nigra pars compacta” value is “prevented”. Also, the “reduction in the density of tyrosine hydroxylase-positive fibers (striatum)” value in data set [5] (HSV-LRRK2 G2019S mice, 2.5 mg/kg i.p. twice daily) is given as “rescued”. Further, in data set [6], the “crossing of the blood-brain barrier” value was “known to cross the blood-brain barrier”.
Consider `O=C1Nc2ccccc2/C1=C1/Nc2ccccc2/C1=N\O` [Inhibitor 70, Indirubin-3-monooxine], for which, in data set [1], half-maximal inhibition (IC50) was put at 1750 nM, the “LRRK2 autophosphorylation Average ± SEM” value is listed as 6.0 ± 6.5 % of control, the “effect on WT LRRK2 autophosphorylation” value was “inhibited” and the “effect on LRRK2 autophosphorylation” value is “substantially inhibited”. In data set [2], the “effect on LRRK1 autophosphorylation” value is “inhibited” and the IC50 is 790 nM. In addition, the “LRRK2-mediated phosphorylation of 4E-BP1” value in data set [3] is “inhibited”. The “loss of tyrosine hydroxylase-positive neurons induced by HSV-G2019S LRRK2” value in data set [5] is reported as “attenuated”. The “crossing of the blood-brain barrier” value in data set [6] is “known to cross the blood-brain barrier”.

The values above are taken from US20150018301A1, “LRRK-2-Mediated Neuronal Toxicity” (THE JOHNS HOPKINS UNIVERSITY, priority 2009, published 2015).
